In patent US20070149469A1, “Medical use of tbk-1 or of inhibitors thereof” (priority 2003, published 2007):

Assays:
[1] = test system: normal human dermal fibroblasts (NHDF); experiment: NHDF proliferation after transfer of supernatants from transfected HEK 293 cells, Alamar Blue; type: cell-based; conditions: 25 μl HEK 293 supernatant, 4 days, versus empty vector
Procedure: In order to investigate the cell type specificity of TBK-1, supernatants from transfected HEK 293 cells were also added to normal human dermal fibroblasts (NHDF). NHDF were seeded at 1,000 cells per well on 96-well tissue culture plates two days prior to the transfer in 100 μl complete Fibroblast Growth Medium (Promocell, Heidelberg). 24 h prior to the transfer the medium was changed to 100 μl Fibroblast Basal Medium (Promocell, Heidelberg) containing 75 μg/ml gentamycin, 50 ng/ml amphotericin B. After 25 μl of HEK 293 supernatant had been transferred, cells were incubated for 4 days and viable cell number was assessed by Alamar Blue reduction as above.

[2] = test system: VEGF mRNA; experiment: Hypoxia (CoCl2)-induced VEGF mRNA expression in HEK 293 cells after TBK-1 RNAi, quantitative RT-PCR relative to G6PDH; type: cell-based, human; conditions: 100 nM siRNA
Procedure: Real-time PCR was carried out using a LightCycler (Roche Diagnostics). Reactions were set up in microcapillary tubes using the following final concentrations: 0.5 μM each of VEGF sense (CTTGCCTTGCTGCTCTACCT) and VEGF antisense (GATTCTGCCCTCCTCCTTCT) primers, 3 mM MgCl2, 1×SYBR Greenmaster mix and 2 μl of cDNA. For TBK-1 0.5 μM each of TBK-1 sense (TTGAAGAGGAGACAACAACAAGA) and TBK-1 antisense (CAT TCC ACC CAC CAC ATC T) primers were used.
(§1) Cycling conditions for VEGF were as follows: denaturation (95° C. for 10 min), amplification and quantitation (95° C. for 10 s, 58° C. for 10 s and 72° C. for 13 s, with a single fluorescence measurement at the end of the 72° C. for 13 s segment) repeated 45 times. A melting curve program (55-95° C. with a heating rate of 0.1° C./s and continuous fluorescence measurement) and a cooling step to 40° C. followed. Cycling conditions for TBK-1 were identical.
(§2) For relative quantification the procedure was repeated for G6PDH mRNA as reference gene. Data were analyzed using LightCycler analysis software.
HEK 293 cells were transfected with double stranded RNAi oligos specific for TBK-1 using siPORT Amine according to the manufacture's protocol (Ambion Europe LTD, Cambridgeshire, United Kingdom). […] Under these conditions, increased expression of VEGF is observed and can be detected via VEGF ELISA (as shown in example 3). […]

[3] = test system: TBK-1 mRNA; experiment: TBK-1 mRNA knock down by RNAi in HEK 293 cells, quantitative RT-PCR relative to G6PDH; type: cell-based, human; conditions: 100 nM siRNA
Procedure: Real-time PCR was carried out using a LightCycler (Roche Diagnostics). Reactions were set up in microcapillary tubes using the following final concentrations: 0.5 μM each of TBK-1 sense (TTGAAGAGGAGACAACAACAAGA) and TBK-1 antisense (CAT TCC ACC CAC CAC ATC T) primers, 3 mM MgCl2, 1×SYBR Greenmaster mix and 2 μl of cDNA.
as §1, with “TBK-1” for “VEGF”, “followed.” for “followed. Cycling conditions for TBK-1 were identical.”
as §2
HEK 293 cells were transfected with double stranded RNAi oligos specific for TBK-1 using siPORT Amine according to the manufacture's protocol (Ambion Europe LTD, Cambridgeshire, United Kingdom). […] Under these conditions, increased expression of VEGF is observed and can be detected via VEGF ELISA (as shown in example 3).
To determine the functionality of the RNAi molecule regarding inhibition of TBK-1 expression, relative expression levels of TBK-1 mRNAs were analysed by quantitative real-time PCR. […]

Substance	stimulation of NHDF proliferation [1]	induction of VEGF mRNA under hypoxia [2]	inhibition of expression of TBK-1 mRNA [3]
FGF-2	clearly responsive		
TBK-1 RNAi: double stranded RNAi oligo specific for TBK-1: sense GGA GAC AAC AAC AAG ACA Utt, antisense AUG UCU UGU UGU UGU CUC Ctc (sense GGAGACAACAACAAGACAU; antisense AUGUCUUGUUGUUGUCUCCC; listed as RNA, chemistry not given here)		significantly reduces	> 85%
